The values that follow are results of earlier work, collected in article PMC3015105 (Bioorganic & medicinal chemistry letters, 2010).

As usually defined, the IC50 is the midpoint of a concentration-inhibition curve.

For series [1], the target named is human dopamine transporter (hDAT) (Homo sapiens, UniProt Q01959). The note with it: read-out: IC50 DAT inhibition; reported by Carroll.

Bounds are passed on as bounds.

Chain of human dopamine transporter (hDAT) (Q01959 whole entry): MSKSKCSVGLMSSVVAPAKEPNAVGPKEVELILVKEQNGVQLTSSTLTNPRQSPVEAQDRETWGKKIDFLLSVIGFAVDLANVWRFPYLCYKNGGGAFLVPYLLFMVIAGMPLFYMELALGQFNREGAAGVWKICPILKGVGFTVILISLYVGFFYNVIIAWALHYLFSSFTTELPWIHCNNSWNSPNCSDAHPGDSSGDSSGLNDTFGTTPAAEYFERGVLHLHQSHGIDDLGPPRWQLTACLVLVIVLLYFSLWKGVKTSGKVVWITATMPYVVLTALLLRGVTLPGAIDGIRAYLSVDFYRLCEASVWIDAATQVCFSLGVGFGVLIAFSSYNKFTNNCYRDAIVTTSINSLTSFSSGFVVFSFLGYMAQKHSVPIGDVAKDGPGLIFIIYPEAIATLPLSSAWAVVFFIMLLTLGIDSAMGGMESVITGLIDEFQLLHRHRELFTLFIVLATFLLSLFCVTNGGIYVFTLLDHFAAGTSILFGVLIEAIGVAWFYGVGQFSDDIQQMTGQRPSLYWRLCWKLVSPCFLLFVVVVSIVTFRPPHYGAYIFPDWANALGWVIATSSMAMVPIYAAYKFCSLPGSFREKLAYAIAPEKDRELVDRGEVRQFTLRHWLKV

In the case of `COC(=O)[C@H]1[C@@H](OC(=O)c2ccccc2)C[C@@H]2CC[C@H]1N2C` [Cocaine], the duration of action was 10 to 15 min and the “immediate effect (onset)” value is below 15 s.
Take `Cc1cc(C2C3CCC(CC2c2ccc(Cl)cc2)S3)on1` (stereo not drawn) [2β-(3-methylisoxazol-5-yl)-3β-(4-chlorophenyl)-8-thiabicyclo[3.2.1]octane]: the IC50 in series [1] was 0.59 nM.
